The target in one assay is Carbonic anhydrase 2 (Homo sapiens, UniProt P00918).
The target of a further assay is Carbonic anhydrase 1 (Homo sapiens, UniProt P00915).
Assay [1] has as its target T1, Beta-carbonic anhydrase 1 (Mycobacterium tuberculosis, UniProt P9WPJ7).
T1 sequence (P9WPJ7 whole entry): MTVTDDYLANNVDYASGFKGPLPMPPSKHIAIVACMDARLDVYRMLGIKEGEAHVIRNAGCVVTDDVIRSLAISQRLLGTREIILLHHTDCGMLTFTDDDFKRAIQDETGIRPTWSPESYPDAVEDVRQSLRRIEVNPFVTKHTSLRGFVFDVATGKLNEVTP

The term Ki denotes the dissociation constant of the complex between target and ligand, obtained from inhibition or displacement. A higher Ki goes with a looser hold on the target.

Molecules are shown by their SMILES.

Sequence of Carbonic anhydrase 1 (P00915 whole entry): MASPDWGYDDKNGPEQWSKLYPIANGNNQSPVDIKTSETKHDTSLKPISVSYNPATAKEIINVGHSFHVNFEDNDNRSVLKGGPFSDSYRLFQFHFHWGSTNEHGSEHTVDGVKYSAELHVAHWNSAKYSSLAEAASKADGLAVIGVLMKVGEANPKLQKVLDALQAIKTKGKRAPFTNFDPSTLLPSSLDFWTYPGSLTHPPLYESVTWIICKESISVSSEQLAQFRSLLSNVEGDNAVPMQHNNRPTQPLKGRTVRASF

With `NC(=O)c1[nH]c2ccc(S(N)(=O)=O)cc2c1-c1ccccc1`, the Ki on Carbonic anhydrase 2 turned out to be 31 nM; on Carbonic anhydrase 1, 48 nM; in assay [1], 7.5 nM.
For the compound `NS(=O)(=O)c1ccc(S(=O)(=O)Nc2cccc3c(Cl)c[nH]c23)cc1`, at Carbonic anhydrase 1, the affinity, expressed as Ki, was 97 nM.

(Values after ChEMBL document CHEMBL1136931, “Discovery of low nanomolar and subnanomolar inhibitors of the mycobacterial beta-carbonic anhydrases Rv1284 and Rv3273” (J Med Chem, 2009).)
